Experimental data as given in patent US4614731A, “Peptide having immunopotentiating activity similar to thymosin alpha1” (Hoffmann-La Roche Inc., priority 1985, dated 1986).
Ends that are not written are not given here.

How the values were obtained:
[1] = tested on: T cell differentiation and function; assay: in vitro and in vivo assay systems designed to measure T cell differentiation and function
[2] = tested on: Candida albicans; assay: Growth of Candida albicans in C3 H/HeJ mice treated daily i.p. with thymic derivatives; assay type: in vivo; conditions: for Protection in comparison with control mice: daily i.p. graded doses beginning two days before i.v. challenge with 4×10^4 cells of C. albicans; for C. albicans cell count: average number of organisms in left kidneys of nine mice, days 7, 14 and 21 after infection; for Most active (optimum) daily dose: i.p., resistance to infection with C. albicans; for Potency relative to fraction 5 in ability to induce resistance to infection with C. albicans: ratio of optimum doses
Excerpt: The biological activity of thymosin alpha1 can be determined by utilizing in vivo assays known in the art. Thus, for example, inbred strains of mice are known to vary in their susceptability to infection with C. albicans. Thus, mice of such strains as C3 H/HeJ or CBA/CaJ are highly susceptible to infection, whereas mice of such strains as C57 Bl/10SNJ or C57 Bl/KsJ were highly resistant to challenge. Since resistance to infection with C. albicans is associated with cell-mediated processes, and therefore with T-lymphocytes, thymic hormones should have an effect on the host response.
Thymosin fraction5, alpha1, or alpha11 was injected daily i.p. in graded doses into three different groups of mice, beginning two days before intravenous challenge with 4×10^4 cells of C. albicans.
Mice were treated daily with the indicated doses of thymosin fraction 5,
thymosin α1 or thymosin α11 and challenged with 4
× 10^4 cells of C. albicans two days after the start of
*Three mice from each set were sacrificed on days 7, 14 and 21 after
infection and the values represent the average number of organisms in the
left kidneys of the nine mice in each set.

[3] = tested on: T cell differentiation and function; conditions: several in vitro and in vivo assay systems; cited from earlier work

Substance: Ac-SDAAVDTSSEITTKDLKEKKEVVEEAENGREAPAN [Thymosin α11]
- Biological activity relative to thymosin alpha1 [1]: same quantitative and qualitative biological activity
- Protection in comparison with control mice [2]: provided protection
- C. albicans cell count ([2]; dose 80 ng/mouse daily i.p.): 4200
- C. albicans cell count ([2]; dose 160 ng/mouse daily i.p.): 510
- C. albicans cell count ([2]; dose 320 ng/mouse daily i.p.): 320
- C. albicans cell count ([2]; dose 640 ng/mouse daily i.p.): 1260
- Most active (optimum) daily dose [2]: 160-320 ng per mouse
- Potency relative to fraction 5 in ability to induce resistance to infection with C. albicans [2]: about 30 times

Substance: Thymosin α1: first active peptide isolated and characterized from thymosin fraction 5 (Ac-SDAAVDTSSEITTKDLKEKKEVVEEAEN; ends and bridges not checked; UniProt P06454 2-29, looked up)
- Protection in comparison with control mice [2]: provided protection
- C. albicans cell count ([2]; dose 80 ng/mouse daily i.p.): 5870
- C. albicans cell count ([2]; dose 160 ng/mouse daily i.p.): 190
- C. albicans cell count ([2]; dose 320 ng/mouse daily i.p.): 780
- C. albicans cell count ([2]; dose 640 ng/mouse daily i.p.): 1410
- Most active (optimum) daily dose [2]: 160-320 ng per mouse
- Potency relative to fraction 5 in ability to induce resistance to infection with C. albicans [2]: about 30 times
- Activity relative to fraction 5 [3]: one or more orders of magnitude more active than fraction 5
